Data on 6 compounds can be found in BindingDB's records for doi:10.1021/jm970104t (Boehringer Ingelheim, 1998).

pIC50: −log10 of the molar value. Where a SMILES comes first, the peptide text is derived from it. [ ]: non-standard residue; d: D form. The star is where a group is joined. ξ: configuration not given here. Tle = CC(C)(C)[C@H](N)C(=O)O; ξNva = CCCC(N)C(=O)O; ξA = CC(N)C(=O)O; CF3 = FC(F)(F)*

This test deals with HCMV protease (Human cytomegalovirus). The test can be described thus: Micro molar potency to inhibit human cytomegalovirus (HCMV) protease.

On to `CC(NC(=O)[C@H](CC(=O)N(C)C)NC(=O)[C@@H](O)C(C)(C)C)C(=O)C(F)(F)F` (stereo partly drawn) [(S)-2-((S)-2-Hydroxy-3,3-dimethyl-butyrylamino)-N*4*,N*4*-dimethyl-N*1*-(3,3,3-trifluoro-1-methyl-2-oxo-propyl)-succinamide], for which the pIC50 is 4.70.

As to `CC(NC(=O)[C@H](CC(=O)N(C)C)NC(=O)[C@@H](N)C(C)(C)C)C(=O)C(F)(F)F` (stereo partly drawn) [(S)-2-((S)-2-Amino-3,3-dimethyl-butyrylamino)-N*4*,N*4*-dimethyl-N*1*-(3,3,3-trifluoro-1-methyl-2-oxo-propyl)-succinamide] (H-[Tle]-Asp(NMe2)-[ξA]-CF3), the pIC50 is 4.92.

The compound `CN(C)C(=O)C[C@H](NC(=O)[C@@H](NC(=O)CC(C)(C)C)C(C)(C)C)C(=O)N[C@H]1CN(OCc2ccccc2)C1=O` [(S)-N*1*-((S)-1-Benzyloxy-2-oxo-azetidin-3-yl)-2-[(S)-2-(3,3-dimethyl-butyrylamino)-3,3-dimethyl-butyrylamino]-N*4*,N*4*-dimethyl-succinamide] gave a pIC50 of 4.48. This pIC50 is 0.44 log units lower than that of the compound before.

The compound `Cc1ccc2nc(C(=O)C(C)NC(=O)[C@H](CC(=O)N(C)C)NC(=O)[C@@H](NC(=O)CC(C)(C)C)C(C)(C)C)oc2c1` (stereo partly drawn) [(S)-2-[(S)-2-(3,3-Dimethyl-butyrylamino)-3,3-dimethyl-butyrylamino]-N*4*,N*4*-dimethyl-N*1*-[1-methyl-2-(6-methyl-benzooxazol-2-yl)-2-oxo-ethyl]-succinamide] gave a pIC50 of 6.22. Against the preceding compound, the pIC50 is 1.74 log units higher.

Consider `CC(NC(=O)[C@H](CC(=O)N(C)C)NC(=O)[C@@H](NC(=O)CC(C)(C)C)C(C)(C)C)C(=O)C(=O)N(C)C` (stereo partly drawn) [(S)-2-[(S)-2-(3,3-Dimethyl-butyrylamino)-3,3-dimethyl-butyrylamino]-N*1*-(2-dimethylcarbamoyl-1-methyl-2-oxo-ethyl)-N*4*,N*4*-dimethyl-succinamide], for which the pIC50 is < 3.52.

Consider `CCCC(NC(=O)[C@H](CC(N)=O)NC(=O)[C@@H](NC(=O)[C@@H](NC(C)=O)C(C)C)C(C)C)C(=O)C(F)(F)F` (stereo partly drawn) [(S)-2-[(S)-2-((S)-2-Acetylamino-3-methyl-butyrylamino)-3-methyl-butyrylamino]-N*1*-[1-(2,2,2-trifluoro-acetyl)-butyl]-succinamide] (Ac-VVN[ξNva]-CF3), for which the pIC50 was < 3.52.
